Reference: paper PMC9653409, “Generative deep learning enables the discovery of a potent and selective RIPK1 inhibitor” (Nature Communications, 2022)
Several values for one entry are separate records, joined by “and”; a condition that tells them apart may be missing. Identical values can stand only once.

Key:
RIPK1 = biological target: T1, RIPK1 (Homo sapiens, UniProt Q13546); assay: RIPK1 kinase assay, ADP-Glo assay; type: biochemical
T1 sequence (Q13546 1-671): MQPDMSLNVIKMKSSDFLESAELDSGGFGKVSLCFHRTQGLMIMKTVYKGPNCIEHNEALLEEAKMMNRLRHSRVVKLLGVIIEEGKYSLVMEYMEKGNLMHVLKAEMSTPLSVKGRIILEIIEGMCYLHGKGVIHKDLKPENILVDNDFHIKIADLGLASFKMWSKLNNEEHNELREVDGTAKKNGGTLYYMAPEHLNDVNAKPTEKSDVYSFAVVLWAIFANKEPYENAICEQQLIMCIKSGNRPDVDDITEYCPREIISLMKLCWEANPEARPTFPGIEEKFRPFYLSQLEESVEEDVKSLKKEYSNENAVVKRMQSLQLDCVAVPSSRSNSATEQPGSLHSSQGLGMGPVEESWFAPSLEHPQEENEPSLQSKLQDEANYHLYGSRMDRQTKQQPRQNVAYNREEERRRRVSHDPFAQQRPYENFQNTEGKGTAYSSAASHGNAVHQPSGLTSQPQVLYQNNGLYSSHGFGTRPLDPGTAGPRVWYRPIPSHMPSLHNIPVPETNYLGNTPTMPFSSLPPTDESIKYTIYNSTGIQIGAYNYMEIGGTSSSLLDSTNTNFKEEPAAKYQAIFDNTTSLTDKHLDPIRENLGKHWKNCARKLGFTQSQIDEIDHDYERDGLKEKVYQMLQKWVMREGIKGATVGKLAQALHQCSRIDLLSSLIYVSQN

[1] = Maximum tolerated dose study in mice
MLK1 = MLK1 (Homo sapiens, UniProt P80192); assay: Kinase assay (Eurofins); type: biochemical
MLK1, sequence (P80192 whole entry): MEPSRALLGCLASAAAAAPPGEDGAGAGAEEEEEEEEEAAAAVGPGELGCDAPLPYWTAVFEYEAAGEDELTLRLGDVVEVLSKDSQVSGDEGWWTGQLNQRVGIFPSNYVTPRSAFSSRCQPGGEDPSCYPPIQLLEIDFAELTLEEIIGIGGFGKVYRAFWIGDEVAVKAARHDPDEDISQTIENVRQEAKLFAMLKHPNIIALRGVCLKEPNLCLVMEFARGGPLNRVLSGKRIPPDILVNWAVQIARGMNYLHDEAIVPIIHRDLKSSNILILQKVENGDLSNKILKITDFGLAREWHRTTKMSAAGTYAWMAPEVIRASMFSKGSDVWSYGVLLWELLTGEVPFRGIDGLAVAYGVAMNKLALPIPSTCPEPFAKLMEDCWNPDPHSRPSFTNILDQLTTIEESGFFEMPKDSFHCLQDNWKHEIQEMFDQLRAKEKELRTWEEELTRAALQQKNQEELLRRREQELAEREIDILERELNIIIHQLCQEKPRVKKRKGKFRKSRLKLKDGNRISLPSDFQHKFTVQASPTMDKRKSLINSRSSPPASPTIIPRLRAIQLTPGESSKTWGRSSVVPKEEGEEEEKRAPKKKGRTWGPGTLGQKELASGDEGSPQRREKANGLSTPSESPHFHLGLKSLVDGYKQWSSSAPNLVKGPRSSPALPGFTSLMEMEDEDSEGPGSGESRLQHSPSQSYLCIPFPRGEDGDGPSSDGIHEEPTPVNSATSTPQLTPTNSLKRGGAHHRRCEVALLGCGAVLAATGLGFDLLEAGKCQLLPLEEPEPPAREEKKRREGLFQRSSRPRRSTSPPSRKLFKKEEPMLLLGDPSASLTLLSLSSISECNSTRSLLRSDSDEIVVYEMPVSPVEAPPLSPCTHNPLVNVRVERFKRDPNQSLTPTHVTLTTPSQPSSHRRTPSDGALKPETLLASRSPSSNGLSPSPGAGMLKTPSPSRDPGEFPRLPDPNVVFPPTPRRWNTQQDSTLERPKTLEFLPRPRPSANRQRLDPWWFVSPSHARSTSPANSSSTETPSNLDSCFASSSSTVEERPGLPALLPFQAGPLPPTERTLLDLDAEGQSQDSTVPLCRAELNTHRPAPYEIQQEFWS
Experimental: (§1) In vitro kinase activity assays were conducted through the Kinase Profiling Services provided by Eurofins (Eurofins, France). The protocol for the RIPK1 assay is briefly described as follows (Protocols for other kinases are very similar and can be found in http://www.eurofins.com/pharmadiscovery). RIPK1 kinase was incubated with the test compound in assay buffer containing 8 mM MOPS (pH 7.0), 0.2 mM EDTA, 250 μM […], 10 mM magnesium acetate, and 10 μM [γ-33P]-ATP for 15 min at room temperature. The reaction was initiated by the addition of the Mg/ATP mixture. After incubation for 40 min at room temperature, and the reaction was stopped by the addition of 3% phosphoric acid. A 10 μL portion of the reaction mixture was then spotted onto a P30 filter mat and washed four times for 4 min in 0.425% phosphoric acid and once in methanol prior to drying and scintillation counting.

MLK2 = MLK2 (Homo sapiens, UniProt Q02779); assay: Kinase assay (Eurofins); type: biochemical
MLK2, sequence (Q02779 whole entry): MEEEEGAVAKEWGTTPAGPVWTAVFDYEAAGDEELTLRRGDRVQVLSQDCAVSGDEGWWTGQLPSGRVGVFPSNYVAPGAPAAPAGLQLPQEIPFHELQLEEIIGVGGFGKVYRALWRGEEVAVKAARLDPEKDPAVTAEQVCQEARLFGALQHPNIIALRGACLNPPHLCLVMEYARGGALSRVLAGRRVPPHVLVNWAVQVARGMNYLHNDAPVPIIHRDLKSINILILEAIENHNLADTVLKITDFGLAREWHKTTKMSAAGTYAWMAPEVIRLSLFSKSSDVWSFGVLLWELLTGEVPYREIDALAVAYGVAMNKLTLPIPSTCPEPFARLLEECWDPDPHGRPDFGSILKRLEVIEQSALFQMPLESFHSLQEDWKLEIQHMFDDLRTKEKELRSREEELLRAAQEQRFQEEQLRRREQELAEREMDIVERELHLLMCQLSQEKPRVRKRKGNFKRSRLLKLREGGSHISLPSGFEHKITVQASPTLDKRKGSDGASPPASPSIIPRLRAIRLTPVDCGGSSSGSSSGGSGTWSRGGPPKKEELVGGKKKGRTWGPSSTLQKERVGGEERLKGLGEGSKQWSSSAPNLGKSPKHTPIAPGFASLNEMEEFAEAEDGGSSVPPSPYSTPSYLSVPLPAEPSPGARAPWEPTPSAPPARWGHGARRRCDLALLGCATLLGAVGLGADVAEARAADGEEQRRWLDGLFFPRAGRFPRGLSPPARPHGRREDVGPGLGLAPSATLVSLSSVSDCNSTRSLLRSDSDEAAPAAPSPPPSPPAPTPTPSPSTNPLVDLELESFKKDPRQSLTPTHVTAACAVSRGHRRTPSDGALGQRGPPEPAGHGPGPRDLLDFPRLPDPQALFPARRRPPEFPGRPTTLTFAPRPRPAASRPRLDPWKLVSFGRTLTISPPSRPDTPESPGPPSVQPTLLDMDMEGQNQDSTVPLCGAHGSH
Experimental: as §1

MLK3 = MLK3 (Homo sapiens, UniProt Q16584); assay: Kinase assay (Eurofins); type: biochemical
MLK3, sequence (Q16584 whole entry): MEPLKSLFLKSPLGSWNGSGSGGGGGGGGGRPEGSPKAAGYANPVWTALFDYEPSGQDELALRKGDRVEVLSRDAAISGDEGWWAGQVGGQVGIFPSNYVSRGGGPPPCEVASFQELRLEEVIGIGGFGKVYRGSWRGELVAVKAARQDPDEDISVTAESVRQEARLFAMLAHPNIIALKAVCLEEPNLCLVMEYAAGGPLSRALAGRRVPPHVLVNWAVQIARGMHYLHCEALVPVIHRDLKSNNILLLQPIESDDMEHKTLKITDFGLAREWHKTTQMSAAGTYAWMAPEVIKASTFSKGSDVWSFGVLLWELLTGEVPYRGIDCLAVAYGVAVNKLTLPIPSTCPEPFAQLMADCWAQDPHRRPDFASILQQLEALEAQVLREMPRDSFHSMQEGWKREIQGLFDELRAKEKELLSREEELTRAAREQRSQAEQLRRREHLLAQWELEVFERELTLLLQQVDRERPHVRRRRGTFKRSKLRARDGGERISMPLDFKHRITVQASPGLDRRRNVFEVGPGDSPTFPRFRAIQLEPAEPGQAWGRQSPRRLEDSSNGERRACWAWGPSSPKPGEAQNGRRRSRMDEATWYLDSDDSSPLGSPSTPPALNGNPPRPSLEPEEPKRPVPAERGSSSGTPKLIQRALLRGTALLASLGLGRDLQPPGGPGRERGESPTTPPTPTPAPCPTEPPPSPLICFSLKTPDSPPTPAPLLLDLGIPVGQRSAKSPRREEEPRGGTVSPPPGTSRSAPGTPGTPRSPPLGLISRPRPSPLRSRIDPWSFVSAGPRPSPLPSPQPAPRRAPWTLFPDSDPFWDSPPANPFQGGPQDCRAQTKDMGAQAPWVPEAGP
Experimental: as §1

RIPK2 = RIPK2 (Homo sapiens, UniProt O43353); assay: Kinase assay (Eurofins); type: biochemical
RIPK2, sequence (O43353 whole entry): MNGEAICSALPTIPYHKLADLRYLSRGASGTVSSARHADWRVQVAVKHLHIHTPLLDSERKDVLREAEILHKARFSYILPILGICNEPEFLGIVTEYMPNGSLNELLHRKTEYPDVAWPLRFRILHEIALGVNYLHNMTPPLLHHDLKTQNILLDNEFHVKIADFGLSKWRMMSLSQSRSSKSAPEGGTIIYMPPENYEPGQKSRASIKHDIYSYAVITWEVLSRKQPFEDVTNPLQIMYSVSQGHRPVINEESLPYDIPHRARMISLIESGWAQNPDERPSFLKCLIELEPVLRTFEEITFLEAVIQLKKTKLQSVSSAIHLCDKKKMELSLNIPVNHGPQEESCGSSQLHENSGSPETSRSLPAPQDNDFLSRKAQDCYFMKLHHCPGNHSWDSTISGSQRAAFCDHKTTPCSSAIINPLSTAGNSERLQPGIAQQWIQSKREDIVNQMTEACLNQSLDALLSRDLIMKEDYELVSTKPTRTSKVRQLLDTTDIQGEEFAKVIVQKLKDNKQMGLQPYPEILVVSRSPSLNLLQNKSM
Experimental: as §1

IL-1β = assay: DSS-induced IBD mouse model: IL-1β in cultured colon supernatant (ELISA); type: in vivo, C57BL/6 female mice
Experimental: (§2) DSS (3% w/v) was administered in drinking water ad libitum for 7 d (from day 0 to day 7). DSS solution was replaced three times on day 2, day 4, and day 6. […] Three mice in each group were killed at random on day 7, and distal colon tissues were collected for analysis. The mice weight and survival rate were recorded daily.
In the TNFα-induced SIRS model, at 6 h after TNFα injection, four mice in each group were killed at random, and the serums were collected, the serum concentrations of IL-1β and IL-6 were measured using ELISA kits (Neobioscience Technology) according to manufacturer’s instructions. […] The supernatant was collected by sequential centrifugation at 500 × g for 10 min and 3000 × g for 10 min. The concentrations of cytokines TNFα, IL-6, and IL-1β were measured using ELISA kits (Neobioscience Technology).

[2] = tested on: phosphorylation of RIPK1, RIPK3, and MLKL; assay: Western blot of necroptotic signaling proteins in HT29 cells; type: cell-based, human; conditions: HT29, TSZ
Experimental: Cell pellets were collected and resuspended in RIPA lysis buffer (Beyotime), to which phenylmethylsulfonyl fluoride, a […], and a phosphatase inhibitor cocktail (Sigma) had been added. […] The supernatants were collected and subjected to western blot analysis.
The cell proteins or tissue proteins were separated in a polyacrylamide gel and transferred to a methanol-activated polyvinylidene fluoride membrane. The membrane was blocked for 2 h in Tris-buffered saline plus Tween-20 containing 5% milk and then immunoblotted sequentially with primary and secondary antibodies. Detection was performed with an ECL chemiluminescence kit (Abbkine). […]

DSS-induced IBD = DSS-induced IBD mouse model: colon length; type: in vivo, C57BL/6 female mice
Experimental: as §2

With CC(C)C(=O)Nc1nc2cc(-c3ccc4c(c3)c(C(=O)NC(C)c3ccccc3)cn4C)ccn2n1 (stereo not drawn) [RI-962] the inhibition at 0.000152416 µM (RIPK1; 0.152416 nM) was -7.04%, the inhibition at 0.000457247 µM (RIPK1; 0.457247 nM) was -2.09% and the inhibition at 0.00137174 µM (RIPK1; 1.371742 nM) was 5.59%. For the same compound, the inhibition at 0.00411523 µM (RIPK1; 4.115226 nM) was 34.1%, the inhibition at 0.0123457 µM (RIPK1; 12.345679 nM) was 80% and the inhibition at 0.037037 µM (RIPK1; 37.037037 nM) was 94%. For the same compound, the inhibition at 0.111111 µM (RIPK1; 111.111111 nM) was 95.3%, the inhibition at 0.333333 µM (RIPK1; 333.333333 nM) was 96.3% and the inhibition at 1 µM (RIPK1; 1000.000000 nM) was 98.1%. For the same compound, the inhibition at 3 µM (RIPK1; 3000.000000 nM) was 99.3%, the IC50 (RIPK1; ADP-Glo assay) was 0.0059 µM and the “impact on mouse organs (H&E staining)” value ([1]; 250mg/kg) was “no obvious impact on different mouse organs”. The tolerability observations ([1]; doses up to 250 mg/kg) was “no observed weight loss and no other side effects”, the activity at 10 µM (MLK1; 10 µM, read-out: Activity (%), MLK1(h)) was 36% and the IC50 (MLK1; MLK1) was greater than 10 µM. For the same compound, the activity at 10 µM (MLK2; 10 µM, read-out: Activity (%), MLK2(h)) was 29%, the IC50 (MLK2; MLK2) was greater than 10 µM and the “folds less potent against MLK3 than against RIPK1” value (MLK3) was 107 folds. For the same compound, the activity at 10 µM (MLK3; 10 µM, read-out: Activity (%), MLK3(h)) was 20%, the IC50 (MLK3; MLK3) was 3.75 µM and the activity at 10 µM (RIPK2; 10 µM, read-out: Activity (%), RIPK2(h)) was 79%. For the same compound, the IC50 (RIPK2; RIPK2) was greater than 10 µM, the “content of IL-1β in cultured colonic tissue supernatants” value (IL-1β; 40 mg/kg i.p., day 7) was “substantially reduced” and the IL-1β (IL-1β; Figure 9h, individual replicates 1-3) was 46.88 pg/mL and 42.98 pg/mL and 47.29 pg/mL. The “phosphorylation of RIPK1, RIPK3 and MLKL in intact cells” value [2] was “markedly inhibited the phosphorylation of RIPK1 and its downstream signaling proteins RIPK3 and MLKL in a dose-dependent manner”, the “DSS-induced shortening of colon length” value (DSS-induced IBD; 40 mg/kg i.p. once a day, day 7) was “markedly reduced” and the “Colon Length” value (DSS-induced IBD; Figure 9b, individual replicates 1-3) was 52.0 mm and 54.0 mm (2×).
